Measured values published in publication doi:10.1101/2020.09.01.277368v1, “Disulfiram inhibits M. tuberculosis growth by altering methionine pool, redox status and host-immune response” (biorxiv, 2020).

Key:
[1] = target: T1, MetA (HSAT, homoserine acetyl transferase, Rv3341) (Mycobacterium tuberculosis, UniProt P9WJY9); assay: endpoint DTNB CoA release assay; type: biochemical; conditions: read-out: % inhibition at 100 μM
T1 construct: gene metXA

[2] = target: T1, MetA (HSAT, homoserine acetyl transferase, Rv3341); assay: ThermoFluor, SYPRO Orange; type: binding

T1 sequence (P9WJY9 whole entry, looked up): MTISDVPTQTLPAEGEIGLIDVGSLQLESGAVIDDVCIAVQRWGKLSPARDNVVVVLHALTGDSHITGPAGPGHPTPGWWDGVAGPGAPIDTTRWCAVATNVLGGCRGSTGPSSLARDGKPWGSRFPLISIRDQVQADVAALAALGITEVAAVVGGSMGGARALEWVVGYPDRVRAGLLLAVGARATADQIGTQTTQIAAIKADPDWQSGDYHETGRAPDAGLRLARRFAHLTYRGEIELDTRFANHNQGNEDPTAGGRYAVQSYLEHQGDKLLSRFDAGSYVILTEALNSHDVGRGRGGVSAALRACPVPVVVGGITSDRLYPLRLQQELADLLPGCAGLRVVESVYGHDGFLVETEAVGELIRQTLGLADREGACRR

SMILES	inhibition at 100 µM [1] [%]	Kd [2] [µM]
CCN(CC)C(=S)SSC(=S)N(CC)CC [DIS, disulfiram]	> 50	52.7
CN(C)C(=S)SSC(=S)N(C)C [NSC1771, thiram]	> 50	
